Activity calls are given as the source filed them.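 Rule for the calls: active = a concentration killing half the fathead minnows in the acute test was determined; inconclusive = some fish died but not half at top dose; inactive = no fish died even at top dose.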
Test system: Fathead minnow (Pimephales promelas) acute toxicity, lethality
Assay: DSSTox (EPAFHM) EPA Fathead Minnow Acute Toxicity
Source text: The EPA Fathead Minnow Acute Toxicity database was generated by the U.S. EPA Mid-Continental Ecology Division (MED) for the purpose of developing an expert system to predict acute toxicity from chemical structure based on mode of action considerations. […] A second valuable aspect of this database, from a QSAR modeling perspective, is the inclusion of general mode-of-action (MOA) classifications of acute toxicity response for individual chemicals derived from study results. MOA assignments are biologically based classifications, allowing definition of chemical similarity based upon biological activity instead of organic chemistry functional class as most commonly employed in QSAR study. MOA classifications should strengthen the scientific basis for construction of individual QSARs. However, it is cautioned that the broad MOA categorizations should not be construed to represent a single molecular mechanism; for example, CNS seizure agents and respiratory inhibitors are known to act through a variety of receptors. The EPA Fathead Minnow database and results have been used by EPA MED to build components of the ASTER prediction system, which incorporates MOA-based QSARs for the prediction of aquatic toxicity of environmental and industrial chemicals. Briefly, MOA classifications for individual chemicals, derived from experiments and provided in the EPA Fathead Minnow database, were used to derive substructural rules for assigning a new chemical to an MOA category based solely on chemical structure. Once a new chemical is assigned to an MOA category on this basis, the logP-based QSAR for that MOA category is applied.
The DSSTox EPAFHM database (available from the DSSTox Source URL) includes information pertaining to organic chemical class assignments (ChemClass_FHM), acute toxicity in fathead minnow (LC50_mg), dose-response assessments (LC50_Ratio, ExcessToxicityIndex), behavioral assessments (FishBehaviorTest), joint toxicity MOA evaluations of mixtures (MOA_MixtureTest), and additional MOA evaluation of fish acute toxicity syndrome (FishAcuteToxSyndrome) in rainbow trout. All of these indicators, to the extent available, were considered in the determination of MOA and, additionally, were used to determine a level of confidence in the MOA assignment for each chemical (MOA_Confidence). […] Activity Score is mapping of LOG10 (1/LC50_mmol) activity values spanning activity range [MIN, MAX] onto Integer 1-100 Activity range, where 100 is highest potency and 1 is lowest. If Activity Outcome is "active": Activity Score = 100 * INTEGER[(log10(1/ LC50_mmol) - MIN)/([…])].

Row | SMILES | Potency | outcome
1 | Oc1c(O)c(Cl)c(Cl)c(Cl)c1Cl | 5.12 µM | 
2 | O=C(Nc1ccccc1)c1ccccc1O | 18.5 µM | 
3 | COc1c(O)c(Br)cc(C=O)c1[N+](=O)[O-] | 266 µM | 
4 | O=[N+]([O-])c1ccc(O)c([N+](=O)[O-])c1 | 59.2 µM | 
5 | C=C(C)C(=O)OCCOCC | 175 µM | 
6 | C[N+](C)(C)C | 4220 µM | 
7 | COc1cc(C=O)cc(Br)c1O | 258 µM | 
8 | Oc1ccc(Cl)cc1O | 10.9 µM | 
9 | NCCCN1CCN(CCCN)CC1 | 15500 µM | 
10 | O=C1C2CC3CC(C2)CC1C3 | 405 µM | 
11 | CNC(=O)Oc1ccc(C(C)(C)C)cc1 | 48.2 µM | 
12 | c1ccc2ncccc2c1 | 602 µM | 
13 | CCC(=O)CC | 17900 µM | 
14 | CC(C)=CC1C(C(=O)OCc2coc(Cc3ccccc3)c2)C1(C)C (stereo unspecified) | 0.0182 µM | 
15 | Cc1cc(C)c(C#N)c(=O)[nH]1 | 1060 µM | 
16 | CCCO | 75700 µM | 
17 | CCC[CH2][Sn]([CH2]CCC)([CH2]CCC)[CH2]CCC | 0.13 µM | 
18 | CCCCCCC(C)N (stereo unspecified) | 40.2 µM | 
19 | c1cc2c3c(cccc3c1)CC2 | 11.2 µM | 
20 | OCCNCCO | 44800 µM | 
21 | Cc1ccccc1O | 129 µM | 
22 | CCCCCCCCOC(=O)c1cccc(C(=O)OCCCCCCCC)c1 |  | inactive; moa not determined either due to lack of toxicity at saturation or late test res
23 | NC(=O)c1ccc([N+](=O)[O-])cc1 | 801 µM | 

Row | SMILES | Potency | outcome
24 | ClC(Cl)=C(Cl)C(Cl)=C(Cl)Cl | 0.345 µM | 
25 | CCCCCCCCCCCC(N)=O |  | inactive; moa not determined either due to lack of toxicity at saturation or late test res
26 | CC(C)c1cccc(C(C)C)c1N | 86.3 µM | 
27 | Clc1nc(Cl)c(Cl)c(Cl)c1Cl | 1.87 µM | 
28 | O=C(O)c1ccccc1 | 3360 µM | 
29 | Cn1c(=O)c2c(ncn2C)n(C)c1=O | 778 µM | 
30 | Nc1ccc(Br)cc1 | 276 µM | 
31 | COc1ccc(C=O)c(OC)c1 | 121 µM | 
32 | C/C=C/C=C/C | 243 µM | 
33 | O=Cc1ccc(Cl)cc1Cl | 10.3 µM | 
34 | COP(=S)(OC)SCn1nnc2ccccc2c1=O | 0.202 µM | 
35 | CCC1(CCC(C)C)C(=O)NC(=O)NC1=O | 377 µM | 
36 | Cc1nc(C)c(C)o1 | 4040 µM | 
37 | CCCCCCCCCCCN | 1.23 µM | 
38 | CC(=O)C(C)(C)C | 869 µM | 
39 | Oc1ccc(N=Nc2ccccc2)cc1 | 6 µM | 
40 | COC(=O)c1ccc(Cl)cc1 | 64 µM | 
41 | Cc1ccc(N)c(Cl)c1 | 254 µM | 
42 | O=[N+]([O-])c1ccc(O)cc1 | 322 µM | 
43 | CCCCOC(=O)CCCCC(=O)OCCCC | 14.1 µM | 
44 | CCCCOC(C)=O | 155 µM | 
45 | Nc1ccc(Cl)c(Cl)c1 | 46.7 µM | 
46 | Cc1c(Cl)cccc1NC=O | 275 µM | 

Row | SMILES | Potency | outcome
47 | NC(=O)c1ccc(Cl)cc1Cl | 503 µM | 
48 | CC1(C)C(C=C(Cl)Cl)C1C(=O)OCc1cccc(Oc2ccccc2)c1 (stereo unspecified) | 0.0409 µM | 
49 | OCCN1CCNCC1 | 49200 µM | 
50 | CNC(=O)Oc1cccc2c1OC(C)(C)C2 | 3.81 µM | 
51 | Nc1ccc(Cl)c(Cl)c1Cl | 18.5 µM | 
52 | OCCN(CCO)c1ccccc1 | 4060 µM | 
53 | O=[N+]([O-])c1ccccc1 | 967 µM | 
54 | Oc1cccnc1Br | 2700 µM | 
55 | CN(C)c1ccc(C=O)cc1 | 306 µM | 
56 | CC=O | 767 µM | 
57 | CC/C(C)=N/O | 9680 µM | 
58 | CC(=O)c1cccn1C | 1280 µM | 
59 | COc1ccc(C(C)=O)c(O)c1 | 418 µM | 
60 | CC(=O)CC(C)C | 5210 µM | 
61 | CCOC(=O)CC(=O)OCC | 91.8 µM | 
62 | CCOc1ccc(N)c([N+](=O)[O-])c1 | 143 µM | 
63 | CCC1(c2ccccc2)C(=O)NC(=O)NC1=O | 2080 µM | 
64 | CCCCCCCCCCCCCN | 0.328 µM | 
65 | CN(C)c1ccccc1 | 529 µM | 
66 | COc1cccc(OC)c1C | 133 µM | 
67 | CCCCCC(=O)OCC | 61.7 µM | 
68 | N#CCCCCC#N | 17900 µM | 
69 | CCNCC | 11700 µM | 

Row | SMILES | Potency | outcome
70 | CCOC(=O)CCCCC(=O)OCC | 89.9 µM | 
71 | C#CC(O)CCCCC (stereo unspecified) | 3.27 µM | 
72 | COC(=O)c1ccc(Cl)cc1[N+](=O)[O-] | 128 µM | 
73 | O=S(Cc1ccccc1)Cc1ccccc1 | 348 µM | 
74 | C=C(CCl)CCl | 1.52 µM | 
75 | O=[N+]([O-])c1ccc(Oc2ccccc2)cc1 | 12.3 µM | 
76 | CCCCCCCCC(C)=O | 30.9 µM | 
77 | C/C=N/O | 1290 µM | 
78 | CCOP(=S)(OCC)SCSc1ccc(Cl)cc1 | 0.7 µM | 
79 | OCCN1CCOCC1 | 20700 µM | 
80 | ClC(Cl)Cl | 592 µM | 
81 | CCCCOC(=O)CCC(=O)OCCCC | 19.4 µM | 
82 | O=Cc1ccc([N+](=O)[O-])cc1 | 66.8 µM | 
83 | CCCCCC(C)=O | 1150 µM | 
84 | CC1(C)[C@H]2CC[C@]1(C)[C@H](O)C2 | 410 µM | 
85 | Nc1c(Cl)c(Cl)cc(Cl)c1Cl | 1.17 µM | 
86 | C#CC(C)(O)C(C)C (stereo unspecified) | 1830 µM | 
87 | CCCSCCC | 184 µM | 
88 | c1ccccc1 | 225 µM | 
89 | CCCC(C)C1(CC)C(=O)N=C(S)NC1=O (stereo unspecified) | 99.1 µM | 
90 | CNc1ccc(F)cc1 | 307 µM | 
91 | CCCCCOCCCCC | 19.8 µM | 
92 | BrCCCBr | 10.4 µM | 

Row | SMILES | Potency | outcome
93 | CC#N | 40100 µM | 
94 | CCOP(=S)(OCC)Oc1ccc(S(C)=O)cc1 (stereo unspecified) | 140 µM | 
95 | Clc1ccccc1Cl | 64 µM | 
96 | O=[N+]([O-])c1ccccc1Oc1ccc(Cl)cc1 | 7.69 µM | 
97 | Cc1cc(C(C)(C)C)c(O)c(C(C)(C)C)c1 | 1.65 µM | 
98 | CCc1cccc(CC)c1N(COC)C(=O)CCl | 18.5 µM | 
99 | O=C1C[C@@H]2OCC=C3CN4CC[C@]56c7ccccc7N1[C@H]5[C@H]2[C@H]3C[C@H]46 | 1.11 µM | 
100 | ClCCN1CCCC1 | 900 µM | 
101 | Cc1ccccc1F | 176 µM | 
102 | C#CCN(CC#C)CC#C | 2260 µM | 
103 | CN(C)c1ccccn1 | 1040 µM | 
104 | CCCCCCCO | 297 µM | 
105 | CCC(C)(C)c1ccc(O)cc1 | 15.8 µM | 
106 | CC1(C)OCC(CO)O1 (stereo unspecified) | 126000 µM | 
107 | c1ccc(-c2ccncc2)cc1 | 104 µM | 
108 | CC(C)(C)c1ccc(C(N)=O)cc1 | 180 µM | 
109 | Nc1cccc(OCc2ccccc2)c1 | 45.9 µM | 
110 | N#Cc1ccccc1C(F)(F)F | 247 µM | 
111 | ClC(Cl)C(Cl)(Cl)Cl | 37.2 µM | 
112 | CCOC(=O)c1ccccc1O | 122 µM | 
113 | CC(C)O | 144000 µM | 
114 | CC1CNCC(C)O1 (stereo unspecified) | 3360 µM | 
115 | ClCCCl | 1370 µM | 

Row | SMILES | Potency | outcome
116 | C=CCC#N | 2710 µM | 
117 | CCCCCCCC/C=C\CCCCCCCCO |  | inactive; moa not determined either due to lack of toxicity at saturation or late test res
118 | CCCSCCCCSCCC | 14.5 µM | 
119 | CCc1ccc(N)cc1 | 602 µM | 
120 | CC#CCO | 144 µM | 
121 | CCCCCCCCCO | 39.5 µM | 
122 | Oc1cc(Cl)c(Cl)cc1O | 4.97 µM | 
123 | ClCCCCCl | 406 µM | 
124 | Oc1ccc(Cl)cc1Cc1cc(Cl)ccc1O | 1.15 µM | 
125 | CCCc1ccc(O)cc1 | 80.8 µM | 
126 | CN(C)C(=O)Nc1ccc(Cl)c(Cl)c1 | 60.9 µM | 
127 | C#CC(C)O (stereo unspecified) | 167 µM | 
128 | CCN(CC)CCCC(C)=O | 2140 µM | 
129 | CCCCCCOC(C)=O | 30.5 µM | 
130 | CCC(C)n1c(=O)[nH]c(C)c(Br)c1=O (stereo unspecified) | 712 µM | 
131 | CCOP(=S)(OCC)SCSC(C)(C)C | 0.0461 µM | 
132 | Cc1ccncc1 | 4330 µM | 
133 | S=c1[nH]c2cc(Cl)ccc2s1 | 15.9 µM | 
134 | c1ccc(CN2CCNCC2)cc1 | 269 µM | 
135 | CCc1c(Br)c(Br)c(Br)c(Br)c1Br |  | inactive; moa not determined either due to lack of toxicity at saturation or late test res
136 | O=S(=O)([O-])c1ccc[n+](Cc2ccccc2)c1 | 9670 µM | 
137 | Cc1cc(O)ccc1Cl | 38.4 µM | 
138 | CCC(C)O (stereo unspecified) | 49500 µM | 

Row | SMILES | Potency | outcome
139 | CCN(CC)C1CCCCC1 | 138 µM | 
140 | CC(C)(C)CN | 5450 µM | 
141 | COC(C)=O | 4820 µM | 
142 | Cc1ccccc1C=O | 440 µM | 
143 | CCCCOC(=O)/C=C/C(=O)OCCCC | 2.76 µM | 
144 | ClC(Cl)C(Cl)Cl | 121 µM | 
145 | Oc1ccccc1-c1ccccc1 | 36.1 µM | 
146 | NC(=O)c1c(Cl)cccc1Cl | 2470 µM | 
147 | Nc1ccc([N+](=O)[O-])cc1[N+](=O)[O-] | 80.8 µM | 
148 | CCc1ccccc1 | 98.9 µM | 
149 | c1ccc2occc2c1 | 119 µM | 
150 | C=C(C)C(=O)OCCO | 1740 µM | 
151 | CC(=O)c1ccc(Cl)c([N+](=O)[O-])c1 | 27.6 µM | 
152 | CCCCCCCCCC(C)=O | 8.81 µM | 
153 | Nc1ccc(Br)cn1 | 1020 µM | 
154 | CN1CCNCC1 | 23000 µM | 
155 | c1ccc(-c2ccc(-c3ccccc3)o2)cc1 |  | inactive; moa not determined either due to lack of toxicity at saturation or late test res
156 | CC(C)CO | 19300 µM | 

Source: PubChem BioAssay AID1188 (EPA DSSTox, 2008)
